Values joined by “and” are separate entries in the source; they are usually repeats but may differ in a detail not shown here. Equal entries are not always repeated. Where two headings read alike, the source gives them in different places. *1 amine or outer side, *2 acyl side, *3 side chain or, on linkers, in order; H or OH if unused. Side-chain parts run from the residue outwards. [ ]: non-standard residue; d: D form. The star is where a group is joined. C20 diacid = O=C(O)CCCCCCCCCCCCCCCCCCC(=O)*; γGlu = O=C(O)[C@H](CCC(=O)[*:2])N[*:1]; εLys = N[C@@H](CCCCN[*:1])C(=O)[*:2]; αMeL = CC(C)C[C@](C)(N)C(=O)O; AEEA = NCCOCCOCC(=O)O; Aib = CC(C)(N)C(=O)O
Legend:
[1] = test system: pre-existing antibodies (ADA) in treatment-naive normal human serum; assay: Pre-existing reactivity (ACE assay format); assay type: binding
Method: This assay assessed the presence of pre-existing antibodies (ADA) against the tested molecules in treatment-naive normal human serum (NHS). Diluted NHS was incubated overnight on a Pierce Streptavidin plate coated with biotinylated tested molecules. On the following day, the captured binding proteins were acid eluted, hard-coated to a Mesoscale (MSD) plate, and detected with a combination of biotin-labeled molecule and ruthenium-labeled streptavidin. If anti-drug antibodies were present, they would bind the labeled drug and the resulting signal was referred to as Tier 1 signal (expressed as electrochemiluminescence). […] The presence of pre-existing anti-drug antibodies was expressed as magnitude of the 90th percentile of Tier 2 inhibition. The 90th percentile of Tier 2 inhibition is a statistical tool to assess the magnitude of specificity of Tier 1 reactivity. This 90th percentile was used to rank molecules in terms of ADA risk.

CD4+ T cells = assay: T cell proliferation assay; assay type: cell-based, human; conditions: responding donors / donors tested
Method: This assay assessed the ability of tested antibodies or tested MAPPS peptides to activate CD4+ T cells by inducing cellular proliferation. CD8+ T cell depleted PBMC's were prepared and labeled with CFSE. Each sample was tested with media control, keyhole limpet haemocyanin (KLH; positive clinical benchmark control), tested antibodies, or tested MAPPS peptides. Cultures were incubated for 7 days. On day 7, samples were analyzed by flow cytometry.

[2] = Pharmacokinetics in CD-1 mice, single 100 nmol/kg subcutaneous dose; assay type: in vivo; conditions: mouse, plasma, sc, male CD-1 mice, mean
Method: (§1) Plasma concentrations of compounds were determined by LC/MS methods. For each assay, the compound and an internal standard (IS), were extracted from 100% mouse, rat, pig, or monkey plasma (70 μL) using Isopropanol-Methanol. Two distinct layers were formed upon centrifugation with the compound and the IS located in the supernatant layer. An aliquot of the supernatant (150 μL) was transferred to a Waters Sirocco Protein Precipitation Plate. The supernatant was eluted using a positive pressure manifold. The supernatant was mixed with 100-2 Water-Formic acid (400 μL) in a pretreated Sep-Pak tC18 SPE plate and eluted to waste. The peptide and IS were eluted with Acetonitrile-Formic acid (100 μL) in 2 steps (50 μL each step). The elution (40 μL) from SPE plate was mixed with diluent solution (1.875 μL 5× invitrosol and 3.125 μL 1% formic acid in water, 80 μL). A final sample (10 μl) was loaded onto a Xselect CSH C18 IS column (3.5 μm 2.1×20 mm). The column effluent was directed into a Thermo Fisher Scientific Orbitrap (Exploris 240) mass spectrometer for detection and quantitation.
Male CD-1 mice were administered a single subcutaneous dose (100 nmol/kg) of compound in 40 mM Tris-HCl 5% D-mannitol (pH 8) at a volume of 5 mL/kg. Blood was collected at 6, 24, 48, 96, 168, 240, 288, and 336 hours postdose for pharmacokinetic characterization.

[3] = Pharmacokinetics in Cynomolgus monkeys, single subcutaneous or intravenous dose; assay type: in vivo; conditions: for Tmax: read-out: Tmax
Method: as §1
Male and female Cynomolgus monkeys were administered a single subcutaneous dose or intravenous dose (183 to 190 nmol/kg) of compound in 40 mM Tris-HCl 5% D-mannitol (pH 8) at a volume of 0.5 mL/kg. Blood was collected from each animal at 0.5, 3, 6, 24, 48, 72, 96, 168, 240, 336, 408, and 504 hours postdose for pharmacokinetic characterization.

[4] = test system: MHC-II presented peptides on human dendritic cells; assay: MAPPS assay (MHC-Associated Peptide Proteomics); assay type: cell-based
Method in brief: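 Peptides eluted from anti-MHC-II immunoprecipitates of day-6 DC lysates were sequenced by MS, mapped onto the parent test molecule, and scored as percentage of donors presenting each region. DCs derived from donor CD14+ cells (IL-4, GM-CSF) received test molecules on day 4, then LPS maturation on day 5.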

[5] = both sexes, cynomolgus monkey, plasma, iv, 187 nmol/kg, single intravenous dose 187 nmol/kg, Mean
[6] = both sexes, cynomolgus monkey, plasma, iv, 187 nmol/kg, single intravenous dose 187 nmol/kg, individual animal
[7] = both sexes, cynomolgus monkey, plasma, sc, 187 nmol/kg, single subcutaneous dose 187 nmol/kg, Mean
[8] = both sexes, cynomolgus monkey, plasma, sc, 187 nmol/kg, single subcutaneous dose 187 nmol/kg, individual animal
[9] = single intravenous dose 187 nmol/kg, individual animal
[10] = single subcutaneous dose 187 nmol/kg, individual animal

With “Ac-GSPSIVTS[αMeL]DVPT[Aib][αMeL]LQKILEQERAEKARQQAK([γGlu-AEEA-εLys-C20 diacid])EAAEILAQV-NH2 [SEQ ID NO: 1, Ac-GSPSIVTS αMeL DVPT Aib αMeL LQKILEQERAEKARQQAK(γE-(2-[2-(2-Amino-ethoxy)-ethoxy]-acetyl)-ϵK-CO-(CH2)18-CO2H)EAAEILAQV-NH2]” the “90th percentile Tier 2 inhibition (pre-existing anti-drug antibodies)” value [1] was “higher 90th percentile Tier 2 inhibition than polypeptides comprising SEQ ID NOs: 22 and 25”, the “Pre-existing Reactivity 90th percentile T2 inhibition >50 donors” value ([1]; ACE assay format) was 37.9% and the “T Cell Proliferation Assay: protein 7-10 donors with diverse MHC” value (CD4+ T cells) was 0/9. The AUC0-inf [2] was 25.7 µM·h, the CL/F [2] was 94.6 mL/day/kg and the Cmax [2] was 327 nM. For the same substance, the Tmax [2] was 24 h, the half-life [2] was 22.8 h and the clearance [3, 5] was 14.7 mL/day/kg. It also gave a half-life [3, 5] of 91.6 h, a clearance [3, 6] of 12.2 mL/day/kg and a half-life [3, 6] of 91.9 h. For the same substance, the half-life [3, 7] was 81.9 h, the CL/F ([3]; both sexes, cynomolgus monkey, plasma, sc, 187 nmol/kg, single subcutaneous dose 187 nmol/kg, Mean, read-out: CL/F (converted)) was 19.5 mL/day/kg and the Tmax [3, 7] was 48 h. It also gave a half-life [3, 8] of 72 h, a CL/F ([3]; both sexes, cynomolgus monkey, plasma, sc, 187 nmol/kg, single subcutaneous dose 187 nmol/kg, individual animal, read-out: CL/F (converted)) of 20.8 mL/day/kg and a Tmax [3, 8] of 48 h. For the same substance, the AUC0-inf ([3]; both sexes, cynomolgus monkey, plasma, sc, single subcutaneous dose 187 nmol/kg, Mean, read-out: AUC0-inf) was 238 µM·h, the Cmax ([3]; both sexes, cynomolgus monkey, plasma, sc, single subcutaneous dose 187 nmol/kg, Mean, read-out: Cmax) was 1180 nM and the AUC0-inf ([3]; both sexes, cynomolgus monkey, plasma, single intravenous dose 187 nmol/kg, Mean, read-out: AUC0-inf) was 315 µM·h. The C0 ([3]; both sexes, cynomolgus monkey, plasma, single intravenous dose 187 nmol/kg, Mean, read-out: C0) was 4600 nM, the “AUC0-inf” value [3, 9] was 369 µM·h and 261 µM·h and the “C0” value [3, 9] was 5040 nM and 4150 nM. For the same substance, the “CL” value [3, 9] was 17.2 mL/day/kg, the “T1/2” value [3, 9] was 91.3 h and the “AUC0-inf” value [3, 10] was 221 µM·h and 255 µM·h. The “CL/F” value [3, 10] was 18.1 mL/day/kg, the “Cmax” value [3, 10] was 1100 nM and 1260 nM and the “T1/2” value [3, 10] was 91.7 h. The “MAPPS Assay >10 donors with diverse MHC” value ([4]; donors displaying MHC-II peptides / donors tested) was 3/20, the “peptides displayed on MHC-II complexes” value ([4]; human dendritic cells from normal donors) was “at least one peptide cluster on MHC-II complexes in a subset of donors” and the “immunogenicity compared with SEQ ID NO:54” value ([4]; in the MAPPs assay and/or the T cell proliferation assay) was “substantial improvements in immunogenicity over a compound comprising SEQ ID NO:54”. The “MAPPS Assay >10 donors with diverse MHC” value ([4]; percentage of donors displaying MHC-II peptides) was 15%.

From patent publication US20250163119A1, “COMPOUNDS FOR THE TREATMENT OF DIABETES OR OBESITY” (Eli Lilly and Company, priority 2023, published 2025)
